The subject of one assay is E. coli DH5α. To be noted: microdilution; reported before; cited from earlier work. A general note: In broth dilution the organism is exposed to a series of concentrations in liquid medium.
The next assay deals with E. coli L-WF+. Put plainly: HPLC uptake study with o-nitroaniline modification. The format is cell-based. To be noted: 10^9 cells/ml DPBSG, 24 μM peptide, 30 min, 37°C; o-nitroaniline treatment; fluorescence HPLC; three independent experiments in triplicates. The source says:
(§1) As the cytoplasmic membrane of bacteria has been identified as the target of cWFW, cell wall-deficient L-form strains derived from E. coli (LWF+) and B. subtilis (L-170) were used to quantify peptide uptake into the cytoplasm. The approach, originally developed for the investigation of peptide uptake into eukaryotic cells, is based on chemical modification of the amino group of lysine side chains with o-nitroaniline and fluorescence-based HPLC detection of non-modified and modified sequences. Fluorescence labelling was necessary for quantification of cyclic hexapeptide uptake.
(§2) Cells were cultivated to an OD550 ± 0.8 in conical flasks as described above. After harvesting and centrifugation at 2000 × g (Sigma 3K12, Germany) for 12 min and removal of culture medium, cells were washed twice with DPBSG (DPBS containing 1g/l glucose). […] Protein content was determined with BCA Protein Assay Kit (Thermo Scientific, Germany) according to manufacturer’s instructions. […]
(§3) HPLC analysis was performed as described before using a Jasco LC-2000 Plus (U.S.) with a ProntoSil 300-5-C18-H column (250 × 4.6 mm, 5 μm) (Bischoff Chromatography, Germany) and a precolumn with PolyenCap A300, 10 μm. Peptide amounts were quantified via calibration curves for carboxyfluorescein (ex 445 nm, em 520 nm, gain 1000) and NBD fluorescence (ex 470 nm, em 520 nm, gain 1000), respectively.

The test system of another assay is B. subtilis L-170. Briefly: HPLC uptake study with o-nitroaniline modification. The format is cell-based. Conditions: 10^9 cells/ml DPBSG, 24 μM peptide, 30 min, 37°C; o-nitroaniline treatment; fluorescence HPLC; three independent experiments in triplicates.
Text: as §1, §2, §3

The test system of a further assay is B. subtilis DSM 347. Conditions: microdilution; reported before; cited from earlier work.
A further assay relates to B. subtilis. Briefly: Peptide localisation by fluorescence microscopy (CLSM). The format is cell-based. To be noted: 12 μM peptide, 30 minutes, LB-agarose pad; at least three independent experiments.
The subject of another assay is E. coli. The assay is described as above. To be noted: 12 μM peptide, 30 minutes, LB-agarose pad; at least three independent experiments. The format is cell-based. As to the method: Cells from an overnight culture were diluted 1:100 in fresh medium and grown to mid-log phase. LB-agarose pads were prepared by adding 1.5% agarose to LB medium and heated until the agarose was completely dissolved. In the case of translocation experiments the solution was slightly cooled down before peptides were added at a final concentration of 12 μM. 100 μl LB-agarose was applied to a cover slip and stored at 8°C in the dark for ~30 minutes. The hardened LB-pad was placed on top of 10 μl of bacterial culture (OD600 0.4) and live cell imaging was performed for up to 100 minutes in a heat controlled chamber to avoid desiccation.
Specific staining of CL with NAO has been shown before and is neither influenced by fixation nor depolarisation of the membrane. The emission shift from green to red fluorescence (513 nm to 640 nm) was reported to be exclusive for binding to CL and is caused by narrow stacking of dye molecules. Images were captured using a Zeiss Axiovert M200 inverted fluorescence microscope and an LSM 510 ConfoCor2 (Germany) with plan-apochromat 63, 100×/1.4 objective, respectively, and processed with ImageJ.

Values after ≈ are worked out from the molar mass of the structure shown. Non-standard residues stand in square brackets, D forms with d. Residues, ends and D or L forms follow the SMILES beside them. *: point of attachment. NBD = O=[N+]([O-])c1ccc(*)c2nonc12; Dap = NC[C@H](N)C(=O)O

Regarding `N=C(N)NCCC[C@@H]1NC(=O)[C@H](CCCCN)NC(=O)[C@H](Cc2c[nH]c3ccccc23)NC(=O)[C@H](CNc2ccc([N+](=O)[O-])c3nonc23)NC(=O)[C@H](Cc2c[nH]c3ccccc23)NC(=O)[C@H](CCCCN)NC1=O` [cR2[NBD]] (cyclo(KRKW[Dap](NBD)W)), the “MIC E. coli DH5α” value in the assay with E. coli DH5α is 50 µM (≈ 51.7 µg/mL). Moreover, the “fraction of unmodified peptide, inaccessible for chemical modification, of the total cell-bound peptides” value was “about 20%” in the assay with E. coli L-WF+ and approximately 30% in the assay on B. subtilis L-170. For the same molecule, the “MIC B. subtilis DSM 347” value with B. subtilis DSM 347 is 12 µM (≈ 12.4 µg/mL).
As for `N=C(N)NCCC[C@@H]1NC(=O)[C@H](CCCNC(=N)N)NC(=O)[C@H](Cc2c[nH]c3ccccc23)NC(=O)[C@H](CNc2ccc([N+](=O)[O-])c3nonc23)NC(=O)[C@H](Cc2c[nH]c3ccccc23)NC(=O)[C@H](CCCNC(=N)N)NC1=O` [cW[NBD]W] (cyclo(RRRW[Dap](NBD)W)), in the assay with E. coli DH5α, the “MIC E. coli DH5α” value is 50 µM (≈ 54.5 µg/mL). Further, the “peptide localisation in live cells” value in the assay with B. subtilis and in the assay with E. coli was “not detectable within the cytoplasm” throughout. Besides, the “MIC B. subtilis DSM 347” value in the assay with B. subtilis DSM 347 is 25 µM (≈ 27.3 µg/mL).

The record behind these values is paper PMC4398456, “Evidence for a Novel Mechanism of Antimicrobial Action of a Cyclic R-,W-Rich Hexapeptide” (PLoS ONE, 2015).
